From ChEMBL document CHEMBL1201862, “PubChem BioAssay data set” (2004)
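Where inhibition never reached the appropriate level, the endpoint shown equals the highest concentration tested. Otherwise, values were interpolated linearly from a five-concentration, 48-hour dose response in 96-well plates. The concentration for 50% growth inhibition is given as GI50.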 The source made the active and inactive calls. Cut-off read from the data, not from the text of the source: active = GI50 up to about 1.1 µM and inactive = higher.

Experiments:
Experiment in all cases: inhibition of tumour cell growth, NCI panel, 48 h
ACHN = system: ACHN
SNB-75 = system: SNB-75
EKVX = system: EKVX
NCI-H226 = system: NCI-H226
UACC-62 = system: UACC-62
SF-539 = system: SF-539
SW-620 = system: SW-620
KM12 = system: KM12
SF-268 = system: SF-268
IGROV-1 = system: IGROV-1
HOP-62 = system: HOP-62
RPMI-8226 = system: RPMI-8226
RXF 393 = system: RXF 393
BT-549 = system: BT-549
NCI-H460 = system: NCI-H460
MDA-MB-435 = system: MDA-MB-435
U-251 = system: U-251
Malme-3M = system: Malme-3M
OVCAR-8 = system: OVCAR-8
SR = system: SR
NCI/ADR-RES = system: NCI/ADR-RES
A498 = system: A498
CAKI-1 = system: CAKI-1
LOX IMVI = system: LOX IMVI
UO-31 = system: UO-31
A549 = system: A549
Hs-578T = system: Hs-578T
DU-145 = system: DU-145
K562 = system: K562
MDA-N = system: MDA-N
OVCAR-3 = system: OVCAR-3
TK-10 = system: TK-10
HL-60 = system: HL-60
HCT-15 = system: HCT-15
MOLT-4 = system: MOLT-4
MDA-MB-231 = system: MDA-MB-231
UACC-257 = system: UACC-257
HCC 2998 = system: HCC 2998
COLO 205 = system: COLO 205
SK-MEL-5 = system: SK-MEL-5
OVCAR-5 = system: OVCAR-5
HT-29 = system: HT-29
HCT-116 = system: HCT-116
SK-OV-3 = system: SK-OV-3
NCI-H23 = system: NCI-H23
M14 = system: M14
SK-MEL-28 = system: SK-MEL-28
SN12C = system: SN12C
OVCAR-4 = system: OVCAR-4
CCRF-CEM = system: CCRF-CEM
786-0 = system: 786-0
SF-295 = system: SF-295
MCF7 = system: MCF7
SNB-19 = system: SNB-19
PC-3 = system: PC-3
SK-MEL-2 = system: SK-MEL-2
HOP-92 = system: HOP-92
T47D = system: T47D
NCI-H522 = system: NCI-H522

Compound: CC1C(C)(C)C23CC12C1(OCCO1)C3Br (stereo unspecified)
- GI50 (ACHN): > 100 µM (inactive)
- GI50 (SNB-75): > 100 µM (inactive)
- GI50 (EKVX): > 100 µM (inactive)
- GI50 (NCI-H226): > 100 µM (inactive)
- GI50 (UACC-62): > 100 µM (inactive)
- GI50 (SF-539): > 100 µM (inactive)
- GI50 (SW-620): > 100 µM (inactive)
- GI50 (KM12): > 100 µM (inactive)
- GI50 (SF-268): > 100 µM (inactive)
- GI50 (IGROV-1): > 100 µM (inactive)
- GI50 (HOP-62): > 100 µM (inactive)
- GI50 (RPMI-8226): > 100 µM (inactive)
- GI50 (RXF 393): > 100 µM (inactive)
- GI50 (BT-549): > 100 µM (inactive)
- GI50 (NCI-H460): > 100 µM (inactive)
- GI50 (MDA-MB-435): > 100 µM (inactive)
- GI50 (U-251): > 100 µM (inactive)
- GI50 (Malme-3M): > 100 µM (inactive)
- GI50 (OVCAR-8): > 100 µM (inactive)
- GI50 (SR): > 100 µM (inactive)
- GI50 (NCI/ADR-RES): > 100 µM (inactive)
- GI50 (A498): > 100 µM (inactive)
- GI50 (CAKI-1): > 100 µM (inactive)
- GI50 (LOX IMVI): > 100 µM (inactive)
- GI50 (UO-31): 11.2 µM (inactive)
- GI50 (A549): > 100 µM (inactive)
- GI50 (Hs-578T): > 100 µM (inactive)
- GI50 (DU-145): > 100 µM (inactive)
- GI50 (K562): > 100 µM (inactive)
- GI50 (MDA-N): > 100 µM (inactive)
- GI50 (OVCAR-3): > 100 µM (inactive)
- GI50 (TK-10): > 100 µM (inactive)
- GI50 (HL-60): > 100 µM (inactive)
- GI50 (HCT-15): > 100 µM
- GI50 (MOLT-4): > 100 µM (inactive)
- GI50 (MDA-MB-231): > 100 µM (inactive)
- GI50 (UACC-257): > 100 µM (inactive)
- GI50 (HCC 2998): > 100 µM (inactive)
- GI50 (COLO 205): > 100 µM (inactive)
- GI50 (SK-MEL-5): > 100 µM (inactive)
- GI50 (OVCAR-5): > 100 µM (inactive)
- GI50 (HT-29): > 100 µM (inactive)
- GI50 (HCT-116): > 100 µM (inactive)
- GI50 (SK-OV-3): > 100 µM (inactive)
- GI50 (NCI-H23): > 100 µM (inactive)
- GI50 (M14): > 100 µM (inactive)
- GI50 (SK-MEL-28): > 100 µM (inactive)
- GI50 (SN12C): > 100 µM (inactive)
- GI50 (OVCAR-4): > 100 µM (inactive)
- GI50 (CCRF-CEM): > 100 µM (inactive)
- GI50 (786-0): > 100 µM (inactive)
- GI50 (SF-295): > 100 µM (inactive)
- GI50 (MCF7): > 100 µM (inactive)
- GI50 (SNB-19): > 100 µM (inactive)
- GI50 (PC-3): > 100 µM (inactive)

Compound: COC(=O)C/N=C1\NC(=S)N(Cc2ccc(OC)cc2)C12CCCC2
- GI50 (ACHN): > 100 µM (inactive)
- GI50 (SNB-75): > 100 µM (inactive)
- GI50 (EKVX): > 100 µM (inactive)
- GI50 (NCI-H226): > 100 µM (inactive)
- GI50 (UACC-62): > 100 µM (inactive)
- GI50 (SF-539): > 100 µM (inactive)
- GI50 (SW-620): > 100 µM (inactive)
- GI50 (KM12): > 100 µM (inactive)
- GI50 (SF-268): > 100 µM (inactive)
- GI50 (HOP-62): > 100 µM (inactive)
- GI50 (RPMI-8226): > 100 µM (inactive)
- GI50 (RXF 393): > 100 µM (inactive)
- GI50 (BT-549): > 100 µM (inactive)
- GI50 (NCI-H460): > 100 µM (inactive)
- GI50 (MDA-MB-435): > 100 µM (inactive)
- GI50 (U-251): > 100 µM (inactive)
- GI50 (Malme-3M): > 100 µM (inactive)
- GI50 (OVCAR-8): > 100 µM (inactive)
- GI50 (SR): > 100 µM (inactive)
- GI50 (NCI/ADR-RES): > 100 µM (inactive)
- GI50 (A498): > 100 µM (inactive)
- GI50 (CAKI-1): > 100 µM (inactive)
- GI50 (UO-31): > 100 µM (inactive)
- GI50 (A549): > 100 µM (inactive)
- GI50 (DU-145): > 100 µM (inactive)
- GI50 (SK-MEL-2): > 100 µM (inactive)
- GI50 (HOP-92): > 100 µM (inactive)
- GI50 (K562): > 100 µM (inactive)
- GI50 (MDA-N): > 100 µM (inactive)
- GI50 (OVCAR-3): > 100 µM (inactive)
- GI50 (HCT-15): > 100 µM
- GI50 (MOLT-4): > 100 µM (inactive)
- GI50 (MDA-MB-231): > 100 µM (inactive)
- GI50 (UACC-257): > 100 µM (inactive)
- GI50 (T47D): > 100 µM (inactive)
- GI50 (HCC 2998): > 100 µM (inactive)
- GI50 (COLO 205): > 100 µM (inactive)
- GI50 (OVCAR-5): > 100 µM (inactive)
- GI50 (HT-29): > 100 µM (inactive)
- GI50 (HCT-116): > 100 µM (inactive)
- GI50 (SK-OV-3): > 100 µM (inactive)
- GI50 (NCI-H23): > 100 µM (inactive)
- GI50 (M14): > 100 µM (inactive)
- GI50 (SK-MEL-28): > 100 µM (inactive)
- GI50 (SN12C): > 100 µM (inactive)
- GI50 (OVCAR-4): > 100 µM (inactive)
- GI50 (CCRF-CEM): > 100 µM (inactive)
- GI50 (NCI-H522): > 100 µM (inactive)
- GI50 (786-0): > 100 µM (inactive)
- GI50 (SF-295): > 100 µM (inactive)
- GI50 (MCF7): > 100 µM (inactive)
- GI50 (SNB-19): > 100 µM (inactive)
- GI50 (PC-3): > 100 µM (inactive)

Compound: O=S(=O)(O)c1ccc2c(/N=N/c3ccccc3)c(O)ccc2c1
- GI50 (SNB-75): > 100 µM (inactive)
- GI50 (EKVX): > 100 µM (inactive)
- GI50 (SF-539): > 100 µM (inactive)
- GI50 (SW-620): > 100 µM (inactive)
- GI50 (KM12): > 100 µM (inactive)
- GI50 (IGROV-1): > 100 µM (inactive)
- GI50 (RXF 393): > 100 µM (inactive)
- GI50 (BT-549): > 100 µM (inactive)
- GI50 (NCI-H460): > 100 µM (inactive)
- GI50 (MDA-MB-435): > 100 µM (inactive)
- GI50 (U-251): > 100 µM (inactive)
- GI50 (OVCAR-8): > 100 µM (inactive)
- GI50 (SR): > 100 µM (inactive)
- GI50 (A498): > 100 µM (inactive)
- GI50 (CAKI-1): > 100 µM (inactive)
- GI50 (UO-31): > 100 µM (inactive)
- GI50 (DU-145): > 100 µM (inactive)
- GI50 (SK-MEL-2): > 100 µM (inactive)
- GI50 (HOP-92): > 100 µM (inactive)
- GI50 (OVCAR-3): > 100 µM (inactive)
- GI50 (HL-60): > 100 µM (inactive)
- GI50 (HCT-15): > 100 µM
- GI50 (MOLT-4): > 100 µM (inactive)
- GI50 (UACC-257): > 100 µM (inactive)
- GI50 (T47D): > 100 µM (inactive)
- GI50 (HCC 2998): > 100 µM (inactive)
- GI50 (COLO 205): > 100 µM (inactive)
- GI50 (SK-MEL-5): > 100 µM (inactive)
- GI50 (OVCAR-5): > 100 µM (inactive)
- GI50 (HCT-116): > 100 µM (inactive)
- GI50 (SK-OV-3): > 100 µM (inactive)
- GI50 (M14): > 100 µM (inactive)
- GI50 (SK-MEL-28): > 100 µM (inactive)
- GI50 (SN12C): > 100 µM (inactive)
- GI50 (CCRF-CEM): > 100 µM (inactive)
- GI50 (786-0): > 100 µM (inactive)
- GI50 (MCF7): > 100 µM (inactive)
- GI50 (SNB-19): > 100 µM (inactive)
